This note sets out measurements from patent US7445794B1, “Methods for treating human proliferative diseases, with a combination of fatty acid metabolism inhibitors and glycolytic inhibitors” (The Regents of the University of Colorado, priority 2004, dated 2008).

The experiment deals with HL60 MDR tumor. Put plainly: Tumor volume of HL60 MDR tumor implanted in nude mice. Format: in vivo. The note with it: for effect on tumor growth (in words): over the 21 day period, versus control. An excerpt: Mice were purchased from the Animal Production Program of National Cancer Institute, Frederick, Md. The animals used were Athymic Ncr-nu/nu (strain code 01B74). HL60 MDR cells were harvested and reconstituted at 1 million cells per 100 microliters of phosphate buffered saline. One million tumor cells per injection site were implanted subcutaneously on two sites of the animal's back. Treatments began at exactly seven days post tumor implantation. Tumor size/volume was monitored twice weekly using measurement calipers, with the formula Tumor Volume=π×(short diameter)^2×(long diameter)/6.
Treatment groups were: etomoxir at 200 micrograms/day; 2-deoxy-D-glucose at 2.5 mM in 100 microliters daily; and the combination daily of etomoxir at 200 micrograms and 2-deoxy-D-glucose at 2.5 mM in 100 microliters.
HL60 MDR human leukemia cells were cultured and implanted in nude mice as described above under “Materials and Methods”. The mice were given 200 ug of Etomoxir, 2.5 mM 2-Deoxy-D-glucose, or both 200 ug of Etomoxir and 2.5 mM 2-Deoxy-D-glucose given daily by IP injection. Treatment began exactly one week after tumor implantation.

In the case of `OC[C@H]1O[C@H](O)CC(O)[C@@H]1O` (stereo partly drawn) [2-deoxy-D-glucose], the “effect on tumor growth (in words)” value is listed as “increase in tumor growth”.
As for `CCOC(=O)C1(CCCCCCOc2ccc(Cl)cc2)CO1` (stereo not drawn) [etomoxir, 2-(6-(4-chlorophenoxy)-hexyl)-oxirane-2-carboxylic acid ethyl ester], the “effect on tumor growth (in words)” value is “increase in tumor growth”. The “tumor volume Day 7” value (Day 7 after implantation (start of daily IP treatment), etomoxir 200 ug, 2-deoxy-D-glucose 2.5 mM) amounted to 36 mm^3.
